From patent US8143393B2, “Substituted 4-amino-pyrrolotriazine derivatives useful for treating hyper-proliferative disorders and diseases associated with angiogenesis” (Bayer HealthCare LLC, priority 2005, dated 2012)

Assays:
[1] = target: T1, FGFR-1 (Homo sapiens, UniProt P11362); assay: FGFR-1 TR-FRET biochemical assay; conditions: 0.6 uM ATP, 5 nM FGFR1-GST; bounds given in nM
T1 construct: GST; made in house
In short: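 FGFR1-GST (5 nM) was incubated with poly GT-biotin (25 nM) and 0.6 uM ATP in HEPES pH 7.5/MgCl2 with 1% DMSO for 1 h at room temperature. Phosphorylation was read by LANCE TR-FRET (Eu-anti-pTyr/SA-APC, 665/615 ratio). Percent inhibition was background-corrected against no-ATP wells, with final compound concentrations of 10 μM–0.128 nM.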

[2] = system: H460; assay: Tumor cell proliferation (H460 proliferation assay); assay type: cell-based; conditions: Homo sapiens, NCI-H460, 72 h, Alamar Blue
Procedure: Human tumor cells (e.g., HCT116 or MDA-MB-231 cells), were seeded in a Costar 96-well plate at 3.0×10^3 cells/well and grown in 150 μl of RPMI complete media (Invitrogen Corporation, Grand Island, N.Y.) containing 10% fetal bovine serum (Hyclone, Logan, Utah) at 37° C. for 16 h in an incubator with 5% CO2. To each well, 50 μl of additional growth media containing 40 μM to 18 nM concentrations of compound with 0.4% DMSO was added. Cells were grown for another 72 h at 37° C. with 5% CO2. 20 μl of Alamar Blue (Trek Diagnostic Systems, Inc., Cleveland, Ohio) reagent was added to each well and incubated for 3 h at 37° C. Plates were read in a SpectraMax Gemini (Molecular Devices, CA) with 544 nm excitation and 590 nm emission wavelength. IC50 values were determined by linear regression analysis of log drug concentration versus percent inhibition.

[3] = system: histone 3 phosphorylation in colon carcinoma (HCT116); assay: p-Histone3 assay; assay type: cell-based; conditions: Homo sapiens, HCT-116, 24 h, HCT116, 24 h treatment
Procedure: Compounds were assayed for the inhibition of histone 3 phosphorylation in colon carcinoma (HCT116). Briefly, 20,000 cells/well were seeded in a 96-well black-walled, poly-d-lysine plates in RPMI+10% FBS and incubated at 37° C. in 5% CO2 overnight. The following day, the cells were treated with compounds for 24 hours at 37° C. Following compound treatment; plates were centrifuged at 1000 rpm for 2 minutes and washed twice with 100 μl of cold sterile TBS. Cells were then fixed with cold 3.7% formaldehyde in TBS (4° C. for 1 hour) and then permeabolized with 0.1% Triton-X-100 in TBS (room temperature for 30 minutes). Plates were then washed with of 0.25% BSA-TBS and blocked with BSA solution for 1 hour at room temperature while shaking. The supernatant was removed and replaced with diluted primary antibody (anti-phospho-histone 3, serine 10, Cell Signaling) at 1:250 in 0.25% BSA-TBS and incubated overnight at 4° C. The plates were washed and treated with diluted secondary antibody (anti-rabbit Eu-labeled) at 1:10000 in 0.25% BSA-TBS (room temperature for 1 hour). The antibody solution was removed from each well and washed eight times. The wash buffer was replaced with 50 μl pre-warmed enhancement solution and mixed on the orbital shaker for 10 minutes. Fluorescence was detected with a Victor V Fluorescence Detector. The data are expressed as percent inhibition: % inhibition=100−((Signal with inhibitor−background)/(Signal without inhibitor−background))−100.

[4] = lower bound of the bin 'greater than 500 nM but less than 4 μM'
[5] = upper bound of the bin 'greater than 500 nM but less than 4 μM'
[6] = lower bound of the bin 'greater than 500 nM but less than 5 μM'

T1 sequence (P11362 22-822): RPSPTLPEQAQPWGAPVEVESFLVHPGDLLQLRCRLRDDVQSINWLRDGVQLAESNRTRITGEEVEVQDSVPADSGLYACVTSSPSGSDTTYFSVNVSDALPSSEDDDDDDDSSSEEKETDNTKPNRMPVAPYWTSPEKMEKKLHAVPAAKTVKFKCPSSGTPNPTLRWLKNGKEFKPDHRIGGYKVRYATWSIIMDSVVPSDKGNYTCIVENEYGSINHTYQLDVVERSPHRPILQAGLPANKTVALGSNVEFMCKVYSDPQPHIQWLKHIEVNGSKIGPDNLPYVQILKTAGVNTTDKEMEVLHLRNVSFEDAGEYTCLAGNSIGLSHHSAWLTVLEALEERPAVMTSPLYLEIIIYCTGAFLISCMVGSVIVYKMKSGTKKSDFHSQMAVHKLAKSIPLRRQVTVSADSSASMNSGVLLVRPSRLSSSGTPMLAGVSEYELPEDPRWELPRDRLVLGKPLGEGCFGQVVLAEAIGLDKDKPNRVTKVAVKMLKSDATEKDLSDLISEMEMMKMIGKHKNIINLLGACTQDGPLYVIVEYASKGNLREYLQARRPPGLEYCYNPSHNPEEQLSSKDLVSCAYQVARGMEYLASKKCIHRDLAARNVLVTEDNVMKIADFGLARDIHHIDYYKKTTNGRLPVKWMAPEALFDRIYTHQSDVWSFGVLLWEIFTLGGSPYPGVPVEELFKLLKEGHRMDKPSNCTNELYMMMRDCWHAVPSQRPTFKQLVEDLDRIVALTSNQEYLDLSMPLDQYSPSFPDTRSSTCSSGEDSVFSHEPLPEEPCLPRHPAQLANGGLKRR

Structure (SMILES)	IC50 [1] [nM]	IC50 [2, 4] [µM]	IC50 [2, 5] [µM]	IC50 ([3]; bounds given in μM) [µM]	IC50 [3, 6] [µM]
Nc1ncnn2c(CN3CCOCC3)cc(-c3ccc(NC(=O)Nc4cc(C(F)(F)F)ccc4F)c(F)c3)c12 [Example 1]	< 10	> 0.5	< 4	–	–
Nc1ncnn2c(CN3CCOCC3)cc(-c3ccc(NC(=O)Nc4cc(C(F)(F)F)ccn4)c(F)c3)c12 [Example 8, N-{4-[4-amino-7-(morpholin-4-ylmethyl)pyrrolo[2,1-f][1,2,4]triazin-5-yl]-2-fluorophenyl}-N′-[4-(trifluoromethyl)pyridin-2-yl]urea]	< 10	> 0.5	< 4	–	–
Cc1ccc(F)c(NC(=O)Nc2ccc(-c3cc(CN4CCOCC4)n4ncnc(N)c34)cc2)c1 [Example 46, N-{4-[4-amino-7-(morpholin-4-ylmethyl)pyrrolo[2,1-f][1,2,4]triazin-5-yl]phenyl}-N′-(2-fluoro-5-methylphenyl)urea]	–	–	–	5 to 10	–
Nc1ncnn2c(CN3CCOCC3)cc(-c3ccc(NC(=O)Nc4ccc(C(F)(F)F)cn4)cc3)c12 [Example 56, N-{4-[4-amino-7-(morpholin-4-ylmethyl)pyrrolo[2,1-f][1,2,4]-triazin-5-yl]phenyl}-N′-[5-(trifluoromethyl)pyridin-2-yl]urea]	–	–	–	5 to 10	–
COc1cccc(NC(=O)Nc2ccc(-c3cc(CN4CCOCC4)n4ncnc(N)c34)cc2F)n1 [Example 72, N-4-[4-amino-7-(morpholin-4-ylmethyl)pyrrolo[2,1-f][1,2,4]triazin-5-yl]-2-fluorophenyl-N′-(6-methoxypyridin-2-yl)urea]	–	–	–	5 to 10	–
Nc1ncnn2c(CN3CCOCC3)cc(-c3ccc(NC(=O)Nc4cccc(Br)n4)c(F)c3)c12 [Example 73, N-4-[4-amino-7-(morpholin-4-ylmethyl)pyrrolo[2,1-f][1,2,4]-triazin-5-yl]-2-fluorophenyl-N′-(6-bromopyridin-2-yl)urea]	–	–	–	5 to 10	–
Nc1ncnn2c(C(=O)NCC3CNCCO3)cc(-c3ccc(NC(=O)Nc4cccc(C(F)(F)F)c4)c(F)c3)c12 (stereo not drawn) [Example 293, 4-amino-5-{3-fluoro-4-[({[3-(trifluoromethyl)phenyl]-amino}carbonyl)amino]phenyl}-N-(morpholin-2-ylmethyl)pyrrolo[2,1-f][1,2,4]-triazine-7-carboxamide]	10 to 100	–	–	–	–
Nc1ncnn2c(CC3CNCCO3)cc(-c3ccc(NC(=O)Nc4cccc(C(F)(F)F)c4)c(F)c3)c12 (stereo not drawn) [Example 301, N-{4-[4-amino-7-(morpholin-2-ylmethyl)pyrrolo[2,1-f][1,2,4]triazin-5-yl]-2-fluorophenyl}-N′-[3-(trifluoromethyl)phenyl]urea]	10 to 100	–	–	–	–

Continued, values first:

IC50 [1] [nM]	IC50 [2, 4] [µM]	IC50 [2, 5] [µM]	IC50 ([3]; bounds given in μM) [µM]	IC50 [3, 6] [µM]	Structure (SMILES)
< 10	–	–	< 5	> 0.5	Nc1ncnn2c(CN3CCOCC3)cc(-c3ccc(NC(=O)Nc4cccc(C(F)(F)F)c4)c(F)c3)c12 [Example 10, N-{4-[4-amino-7-(morpholin-4-ylmethyl)pyrrolo[2,1-f][1,2,4]triazin-5-yl]-2-fluorophenyl}-N′-[3-(trifluoromethyl)phenyl]urea]
< 10	–	–	< 5	> 0.5	Nc1ncnn2c(CN3CCOCC3)cc(-c3cc(F)c(NC(=O)Nc4cc(C(F)(F)F)ccc4F)cc3F)c12 [Example 15, N-{4-[4-amino-7-(morpholin-4-ylmethyl)pyrrolo[2,1-f][1,2,4]triazin-5-yl]-2,5-difluorophenyl}-N′-[2-fluoro-5-(trifluoromethyl)phenyl]urea]
< 10	–	–	< 5	> 0.5	Nc1ncnn2c(CN3CCOCC3)cc(-c3ccc(NC(=O)Nc4cc(C(F)(F)F)ccc4F)cc3F)c12 [Example 16, N-{4-[4-amino-7-(morpholin-4-ylmethyl)pyrrolo[2,1-f][1,2,4]triazin-5-yl]-3-fluorophenyl}-N′-[2-fluoro-5-(trifluoromethyl)phenyl]urea]
< 10	–	–	< 5	> 0.5	Cc1cc(-c2cc(CN3CCOCC3)n3ncnc(N)c23)ccc1NC(=O)Nc1cc(C(F)(F)F)ccc1F [Example 25, N-{4-[4-amino-7-(morpholin-4-ylmethyl)pyrrolo[2,1-f][1,2,4]triazin-5-yl]-2-methylphenyl}-N′-[2-fluoro-5-(trifluoromethyl)phenyl]urea]
10 to 100	–	–	5 to 10	–	COc1ccc(C(C)(C)C)cc1NC(=O)Nc1ccc(-c2cc(CN3CCOCC3)n3ncnc(N)c23)cc1 [Example 44, N-{4-[4-amino-7-(morpholin-4-ylmethyl)pyrrolo[2,1-f][1,2,4]triazin-5-yl]phenyl}-N′-(5-tert-butyl-2-methoxyphenyl)urea]
10 to 100	–	–	< 5	> 0.5	CS(=O)(=O)N1CCN(Cc2cc(-c3ccc(NC(=O)Nc4cc(C(F)(F)F)ccc4F)cc3)c3c(N)ncnn23)CC1 [Example 83, N-[4-(4-amino-7{[4(methylsulfonyl)-piperazin-1-yl]methyl}pyrrolo[2,1-f][1,2,4]triazin-5-yl)phenyl]-N′-[2-fluoro-5-(trifluoromethyl)phenyl]urea]
–	–	–	< 5	> 0.5	CC(=O)N1CCN(Cc2cc(-c3ccc(NC(=O)Nc4cc(C(F)(F)F)ccc4F)cc3)c3c(N)ncnn23)CC1 [Example 87, N-(4-{7-[(4-acetylpiperazin-1-yl)methyl]-4-aminopyrrolo[2,1-f][1,2,4]triazin-5-yl}phenyl)-N′-[2-fluoro-5-(trifluoromethyl)phenyl]urea]
–	–	–	< 5	> 0.5	Nc1ncnn2c(CN3CCNCC3)cc(-c3ccc(NC(=O)Nc4cccc(Br)n4)cc3)c12 [Example 91, N-4-[4-amino-7-(piperazin-1-ylmethyl)pyrrolo[2,1-f][1,2,4]-triazin-5-yl]phenyl-N′-(6-bromopyridin-2-yl)urea]
–	–	–	< 5	> 0.5	CC(=O)N1CCN(Cc2cc(-c3ccc(NC(=O)Nc4cccc(Br)n4)cc3)c3c(N)ncnn23)CC1 [Example 93, N-(4-7-[(4-acetylpiperazin-1-yl)methyl]-4-aminopyrrolo[2,1-f][1,2,4]triazin-5-ylphenyl)-N′-(6-bromopyridin-2-yl)urea]
–	–	–	< 5	> 0.5	CS(=O)(=O)N1CCN(Cc2cc(-c3ccc(NC(=O)Nc4cccc(Br)n4)cc3)c3c(N)ncnn23)CC1 [Example 94, N-[4-(4-amino-7-[4-(methylsulfonyl)piperazin-1-yl]methylpyrrolo[2,1-f][1,2,4]triazin-5-yl)phenyl]-N′-(6-bromopyridin-2-yl)urea]
–	–	–	< 5	> 0.5	Nc1ncnn2c(CO)cc(-c3ccc(NC(=O)Nc4cccc(C(F)(F)F)n4)cc3)c12 [Example 105, N-{4-[4-amino-7-(hydroxymethyl)pyrrolo[2,1-f][1,2,4]triazin-5-yl]phenyl}-N′-[6-(trifluoromethyl)pyridin-2-yl]urea]
